Consider ten compounds from the NIST ThermoML archive (doi:10.1016/j.fluid.2017.03.015).

Numbers after ± are expanded uncertainties.

For the data set the following is noted: Crystal; visual observation.
With `CC(=O)[O-].C[N+](C)(C)CCO` [choline acetate], the Normal melting temperature amounted to 89.47 ± 0.41 °C.

On to `CCCC(=O)[O-].C[N+](C)(C)CCO` [choline butanoate], for which the Normal melting temperature amounted to 42.83 ± 0.41 °C.

As for `CCC(=O)[O-].C[N+](C)(C)CCO` [cholinium propanoate], the Normal melting temperature worked out at 9.42 ± 0.41 °C.

`CCCCCCCCC(C[N+](C)(C)Cc1ccccc1)C(C)O.[Cl-]` (stereo not given) [benzyldimethyl-2-(1-hydroxyethyl)decylammonium chloride]: the Normal melting temperature was 78.27 ± 0.41 °C.

In the case of `CCn1cc[n+](C)c1.[Cl-]` [1-ethyl-3-methylimidazolium chloride], the Normal melting temperature amounted to 77.27 ± 0.41 °C.

On to `C[N+](C)(C)CCO.O=S(=O)([N-]S(=O)(=O)C(F)(F)F)C(F)(F)F` [choline bis(trifluoromethylsulfonyl)imide], for which the Normal melting temperature is 32.50 ± 0.41 °C.

In the case of `C[n+]1ccn(CCO)c1.[Cl-]` [1-(2-hydroxyethyl)-3-methyl-1H-imidazolium chloride], the Normal melting temperature was 85.73 ± 0.41 °C.

In the case of `CCCC[N+]1(C)CCCC1.[Cl-]` [1-butyl-1-methylpyrrolidinium chloride], the Normal melting temperature came out at 199.83 ± 0.41 °C.

Consider `CCCC[P+](CCCC)(CCCC)CCCC.[Cl-]` [tetrabutylphosphonium chloride], for which the Normal melting temperature came to 66.31 ± 0.41 °C.

For `CCCC[N+](CCCC)(CCCC)CCCC.[Cl-]` [tetrabutylammonium chloride], the Normal melting temperature was 69.67 ± 0.41 °C.
